US4612329A, “Pharmaceutical alpha-aminoalkyl-alpha-alkylphenylacetonitriles” (Hokuriku Pharmaceutical Co., Ltd., priority 1984, dated 1986)

Experiments:
[1] = system: aconitine-induced arrhythmias; experiment: Anti-arrhythmic action (aconitine-induced arrhythmias in mice); type: in vivo, male ddY mice; settings: 100 mg/kg orally 60 min prior to aconitine infusion, percent increase of aconitine needed to induce arrhythmias
Procedure: 2. Anti-arrhythmic action (aconitine-induced arrhythmias in mice)
Male ddY mice weighing about 30 g were anesthetized with pentobarbital sodium given intraperitoneally. Aconitine (1.32 μg/min) was continuously infused into a tail vein 15 min posterior to pentobarbital sodium administration. […] The amount of aconitine needed to induce arrhythmias was calculated from the time taken to the onset of the first premature ventricular systoles. The test compounds (100 mg/kg) were orally given 60 min prior to aconitine infusion. Their relative potencies to quinidine were compared by the percent increase of aconitine needed to induce arrhythmias.

Alpha-receptor = Alpha-receptor blocking action (thoracic aorta, noradrenaline); set-up: species or system male rabbit; settings: rabbit thoracic aorta helical strip, Krebs-Henseleit, 37° C., compound applied 30 min prior
Procedure: 3. Alpha-receptor blocking action
The thoracic aorta was excised from male rabbit and helically cut. The helical strip was mounted in a tissue bath containing Krebs-Henseleit solution maintained at 37° C. A resting tension of 2.0 g was applied to the tissue. The change in tension, which was induced by cumulative application of noradrenaline, was isometrically measured by the FD-pickup. The tissue bath solution was bubbled with a mixture of 95% O2 -5% CO2. The test compounds were applied 30 min prior to cumulative application of noradrenaline. The degree of alpha-blocking action was expressed as the pA2 value.

Row | SMILES | Anti-arrhythmic action, relative potency (quinidine = 1) [1] | Alpha-blocking action, pA2 value (Alpha-receptor)
1 | CC(C)N(CCC(C(N)=O)(c1ccccc1)c1ccccn1)C(C)C (stereo not drawn) [disopyramide, reference compound] | 0.97 | 
2 | COc1cccc(C(C#N)(CCCNCCOc2ccccc2OC)C(C)C)c1 (stereo not drawn) [Example 19] | 2.28 | 
3 | COc1cc(C(C#N)(CCCNCCCOc2cccc(N)c2)C(C)C)cc(OC)c1OC (stereo not drawn) [Example 128] | 2.01 | 
4 | COc1cccc(C(C#N)(CCCNCCCOc2ccccc2OC)C(C)C)c1 (stereo not drawn) [Example 25] | 2.34 | 
5 | COc1cccc(C(C#N)(CCCN(C)CCCOc2ccccc2OC)C(C)C)c1 (stereo not drawn) [Example 26] | 1.60 | 
6 | COc1ccc(C(C#N)(CCCN(C)CCCOc2ccccc2OC)C(C)C)cc1OC (stereo not drawn) [Example 58] | 1.64 | 
7 | CCCc1ccccc1OCCCNCCCC(C#N)(c1cc(OC)c(OC)c(OC)c1)C(C)C (stereo not drawn) [Example 122] | 1.21 | 
8 | COc1ccccc1OCCN(C)CCCC(C#N)(c1cc(OC)c(OC)c(OC)c1)C(C)C (stereo not drawn) [Example 85] | 3.72 | 
9 | COc1ccc(C(C#N)(CCCNCCCOc2ccccc2OC)C(C)C)cc1OC (stereo not drawn) [Example 57] | 1.52 | 
10 | CCCCC(C#N)(CCCNCCOc1ccccc1OC)c1cc(OC)c(OC)c(OC)c1 (stereo not drawn) [Example 92] |  | 8.57
11 | COc1ccc(CCN(C)CCCC(C#N)(c2cc(OC)c(OC)c(OC)c2)C(C)C)cc1OC (stereo not drawn) [Gallopamil, reference compound] | 0.30 | 6.11
12 | COc1ccccc1OCCCNCCCC(C#N)(c1cc(OC)c(OC)c(OC)c1)C(C)C (stereo not drawn) [Example 118, Alpha-isopropyl-alpha-[3-[N-[3-(2-methoxyphenoxy)propyl]amino]propyl]-3,4,5-trimethoxyphenylacetonitrile] | 2.65 | 
13 | CCCC(C#N)(CCCNCCOc1ccccc1OC)c1cc(OC)c(OC)c(OC)c1 (stereo not drawn) [Example 91] |  | 8.46
14 | COc1ccccc1OCCNCCCC(C#N)(c1cc(OC)c(OC)c(OC)c1)C(C)C (stereo not drawn) [Example 84, Alpha-isopropyl-alpha-[3-[N-[2-(2-methoxyphenoxy)ethyl]amino]propyl]-3,4,5-trimethoxyphenylacetonitrile] | 2.52 | 8.42
15 | COc1ccccc1OCCCNCCC(C#N)(c1cc(OC)c(OC)c(OC)c1)C(C)C.Cl (stereo not drawn) [Example 6, Alpha-isopropyl-alpha-[2-[N-[3-(2-methoxyphenoxy)propyl]-amino]ethyl]-3,4,5-trimethoxyphenylacetonitrile Hydrochloride] | 2.02 | 
16 | COc1ccc(C(C#N)(CCCNCCOc2ccccc2OC)C(C)C)cc1OC.O=C(O)/C=C\C(=O)O (stereo not drawn) [Example 4, Alpha-isopropyl-alpha-[3-[N-[2-(2-methoxyphenoxy)ethyl]amino]-propyl]-3,4-dimethoxyphenylacetonitrile Maleate] |  | 8.25
17 | COc1ccc(CCN(C)CCCC(C#N)(c2ccc(OC)c(OC)c2)C(C)C)cc1OC (stereo not drawn) [Verapamil, reference compound] |  | 6.41
18 | CCC(C#N)(CCCNCCOc1ccccc1OC)c1cc(OC)c(OC)c(OC)c1 (stereo not drawn) [Example 90, Alpha-ethyl-alpha-[3-[N-[2-(2-methoxyphenoxy)ethyl]amino]propyl]-3,4,5-trimethoxyphenylacetonitrile] |  | 8.79
19 | COc1cc(C(C#N)(CCCNCCCOc2ccccc2N)C(C)C)cc(OC)c1OC (stereo not drawn) [Example 11, Alpha-isopropyl-alpha-[3-[N-[3-(2-aminophenoxy)propyl]amino]-propyl]-3,4,5-trimethoxyphenylacetonitrile] | 1.51 | 
20 | COc1ccc(C(C#N)(CCCNCCOc2ccccc2OC)C(C)C)cc1 (stereo not drawn) [Example 21] |  | 8.02
21 | COc1ccccc1OCCNCCCC(C)(C#N)c1cc(OC)c(OC)c(OC)c1 (stereo not drawn) [Example 88] | 1.34 | 8.40
22 | COc1ccc(C(C#N)(CCCNCCCOc2ccccc2OC)C(C)C)cc1 (stereo not drawn) [Example 27] | 1.43 | 
23 | COc1cc(C(C#N)(CCCNCCOc2ccccc2)C(C)C)cc(OC)c1OC.Cl (stereo not drawn) [Example 3, Alpha-isopropyl-alpha-[3-(2-phenoxyethylamino)propyl]-3,4,5-trimethoxyphenylacetonitrile Hydrochloride] | 2.01 | 
24 | COc1ccccc1OCCCN(C)CCCC(C#N)(c1cc(OC)c(OC)c(OC)c1)C(C)C (stereo not drawn) [Example 119] | 2.24 | 
25 | COc1ccccc1OCCNCCCC(C#N)(CC(C)C)c1cc(OC)c(OC)c(OC)c1 (stereo not drawn) [Example 93, Alpha-isobutyl-alpha-[3-[N-[2-(2-methoxyphenoxy)ethyl]amino]propyl]-3,4,5-trimethoxyphenylacetonitrile] |  | 8.67
26 | COc1cccc(C(C#N)(CCCN(C)CCOc2ccccc2OC)C(C)C)c1 (stereo not drawn) [Example 20] | 1.20 | 
27 | COc1cc(C(C#N)(CCCNCCCOc2ccc(N)cc2)C(C)C)cc(OC)c1OC (stereo not drawn) [Example 126] | 1.03 | 
